Consider 21 compounds from PMC10377566 (European journal of medicinal chemistry, 2022).

Series [1] is described as follows: HPLC-based kinetic solubility in DPBS. It counts as physicochemical. The conditions noted are these: for improvement in solubility: compared to FiVe1, DPBS.
Series [2] has as its system VIM-expressing sarcoma cell lines HT-1080, RD, GCT. Type of series: cell-based. The settings on record: for improvement in potency: VIM-expressing sarcoma cell lines, compared to FiVe1.
A further series deals with HT-1080 cells. The series can be described thus: Cell proliferation assay. Type of series: cell-based. The settings on record: for improvement in selectivity: cell type selectivity (vs MCF-7), compared to FiVe1; for SI (HT-1080 vs MCF-7): selectivity index, ratio of IC50 values HT-1080 and MCF-7.
Series [3] concerns vimentin (VIM) Ser56 phosphorylation. The series can be described thus: Western blot of VIM Ser56 phosphorylation in HT-1080, RD and GCT sarcoma cells. It counts as cell-based. The settings on record: 24 h, HT-1080, RD and GCT cells. (In general: In western blotting, separated proteins are transferred to a membrane and probed.)
Series [4] is described as follows: Pharmacokinetic study in mouse. Type of series: in vivo.
A short description of series [5]: Metabolite identification in incubations with mouse hepatocytes. The settings on record: FiVe1 incubated with mouse hepatocytes, LC-MS/MS, peak area λ = 252–420 nm. It counts as in vitro ADME.
The next series has as its target panel of ~100 kinases. The conditions noted are these: concentrations up to 10 μM; cited from earlier work.
Series [6] relates to VIM-expressing mesenchymal cancer cell lines. The settings on record: anti-proliferative effects compared with cells that lack VIM expression; cited from earlier work.
Series [7] in a line: Metabolic stability in mouse liver microsomes. Type of series: in vitro ADME, mouse (CD-1 Mouse). A general note: Liver microsomes are vesicles of endoplasmic reticulum, rich in cytochrome P450 enzymes.

In brackets after ≈: the same amount, converted by molar mass. Several values for one entry are separate records, joined by “and”; a condition that tells them apart may be missing. Equal entries are not always repeated.

Turning to `CN(C)CCCOc1cc(Cl)cc(N2CCN(c3cnnc4c(Cl)cccc34)CC2)c1` [Compound 11c, 3-(3-chloro-5-(4-(8-chlorocinnolin-4-yl)piperazin-1-yl)phenoxy)-N,N-dimethylpropan-1-amine], in series [1], the improvement in solubility is recorded as over 40 fold. Take `N#Cc1cc(Cl)cc(N2CCN(c3cnnc4c(Cl)cccc34)CC2)c1` [Compound 4b, 3-chloro-5-(4-(8-chlorocinnolin-4-yl)piperazin-1-yl)benzonitrile]: in [2], the improvement in potency is listed as ~ 4 fold. Regarding `COc1cccc(N2CCN(c3cnnc4c(Cl)cccc34)CC2)c1` [Compound 4d, 8-chloro-4-(4-(3-methoxyphenyl)piperazin-1-yl)cinnoline], the improvement in selectivity in the series with HT-1080 cells is over 2 fold. Moreover, the improvement in potency in [2] was over 2 fold. `Nc1cc(Cl)cc(N2CCN(c3cnnc4c(Cl)cccc34)CC2)c1` [Compound 4i, 3-chloro-5-(4-(8-chlorocinnolin-4-yl)piperazin-1-yl)aniline]: in the series on HT-1080 cells, the improvement in selectivity is reported as ~ 2 fold. For the same compound, in series [2], the improvement in potency is ~ 2 fold. With `C[C@H]1CN(c2cnnc3c(Cl)cccc23)CCN1c1cc(Cl)cc(Cl)c1` [Compound 7a, (S)-8-chloro-4-(4-(3,5-dichlorophenyl)-3-methylpiperazin-1-yl)cinnoline], in [2] (compared with its analog 4a), the “loss in antiproliferative potency” value is listed as ~ 2 fold. For `COCCOc1cc(Cl)cc(N2CCN(c3cnnc4c(Cl)cccc34)CC2)c1` [Compound 11f, 8-chloro-4-(4-(3-chloro-5-(2-methoxyethoxy)phenyl)piperazin-1-yl)cinnoline], in the series with HT-1080 cells, the “SI (HT-1080 vs MCF-7)” value was over 12. With `COc1cc(OC)cc(N2CCN(c3cnnc4c(Cl)cccc34)CC2)c1` [Compound 4c, 8-chloro-4-(4-(3,5-dimethoxyphenyl)piperazin-1-yl)cinnoline], the improvement in selectivity with HT-1080 cells is on record as over 15 fold. In [2], this compound returned an improvement in potency of over 20 fold. With `COC(=O)CCOc1cc(Cl)cc(N2CCN(c3cnnc4c(Cl)cccc34)CC2)c1` [Compound 11j, methyl 3-(3-chloro-5-(4-(8-chlorocinnolin-4-yl)piperazin-1-yl)phenoxy)propanoate], the “SI (HT-1080 vs MCF-7)” value with HT-1080 cells is reported as over 20. As a reminder, the solubility is how much of the substance goes into solution per volume. Take `NCCOc1cc(Cl)cc(N2CCN(c3cnnc4c(Cl)cccc34)CC2)c1` [Compound 11a, 2-(3-chloro-5-(4-(8-chlorocinnolin-4-yl)piperazin-1-yl)phenoxy)ethan-1-amine]: the “SI (HT-1080 vs MCF-7)” value in the series on HT-1080 cells is on record as over 5. In addition, the solubility at 16 h in series [1] (DPBS, pH 7.4) turned out to be 68 µM (≈ 28.4 µg/mL). Besides, in [1], the improvement in solubility was over 40 fold. Consider `Clc1cccc(N2CCN(c3ccnc4c(Cl)cccc34)CC2)c1` [Compound 10d, 8-chloro-4-(4-(3-chlorophenyl)piperazin-1-yl)quinoline], for which the “VIM Ser56 phosphorylation (Western immunoblot)” value (shortened to “VIM Ser56 phosphorylation”) in series [3] is “inactive”.

As for `Clc1cc(N2CCCC2)cc(N2CCN(c3cnnc4c(Cl)cccc34)CC2)c1` [Compound 4f, 8-chloro-4-(4-(3-chloro-5-(pyrrolidin-1-yl)phenyl)piperazin-1-yl)cinnoline], in series [2], the “inhibition of mesenchymal cancer cell growth (in words)” value is listed as “total loss in activity”. For the compound `Clc1cccc(N2CCN(c3cnnc4c(Cl)cccc34)CC2)c1` [FiVe1], in [4] (po 25 mg/kg), the Tlast is on record as 18 h. In series [5], the “% Peak Area” value was determined as 6%. Also, the “VIM Ser56 phosphorylation” value in [3] is listed as “induced Ser56 phosphorylation at 1 μM but not at 100 nM”. Also, the kinase inhibition entry at panel of ~100 kinases is recorded as “not found to be an inhibitor of any cell cycle or cytokinesis-related kinase”. Further, the cell-based therapeutic index in series [6] is recorded as over 10. Broadly, the IC50 is the concentration needed to halve the response being measured. For the compound `CC(=O)Nc1cc(Cl)cc(N2CCN(c3cnnc4c(Cl)cccc34)CC2)c1` [Compound 4j, N-(3-chloro-5-(4-(8-chlorocinnolin-4-yl)piperazin-1-yl)phenyl)acetamide], the IC50 in [2] (Homo sapiens, HT-1080, read-out: IC50 values) was about 10 µM.

For the compound `COC(COc1cc(Cl)cc(N2CCN(c3cnnc4c(Cl)cccc34)CC2)c1)OC` [Compound 11g, 8-chloro-4-(4-(3-chloro-5-(2,2-dimethoxyethoxy)phenyl)piperazin-1-yl)cinnoline], the IC50 with HT-1080 cells (Homo sapiens, HT-1080, 72 h, read-out: IC50 HT-1080) worked out at 13.6 ± 1.18 µM. Further, in the series with HT-1080 cells, the “SI (HT-1080 vs MCF-7)” value was over 2.

In the series on HT-1080 cells, `Oc1cc(Cl)cc(N2CCN(c3cnnc4c(Cl)cccc34)CC2)c1` [Compound 4g, 3-chloro-5-(4-(8-chlorocinnolin-4-yl)piperazin-1-yl)phenol] came in with an improvement in selectivity of over 10 fold. For the same compound, the improvement in potency in series [2] is over 20 fold. In the case of “3-(3-chloro-5-(4-(8-chlorocinnolin-4-yl)piperazin-1-yl)phenoxy)propane-1,2-diol [Compound 11e]”, in [7] (mouse liver microsomes), the T1/2 was determined as 42.7 min. Besides, the “Remaining (T= 60 min)” value in series [7] (mouse liver microsomes, 60 min) amounted to 35.7%. Besides, the “CLint(mic)” value in [7] (mouse, microsomes) stood at 32.5 µL/min/mg. Take `O=C(O)CCOc1cc(Cl)cc(N2CCN(c3cnnc4c(Cl)cccc34)CC2)c1` [Compound 11k, 3-(3-chloro-5-(4-(8-chlorocinnolin-4-yl)piperazin-1-yl)phenoxy)propanoic acid]: the “SI (HT-1080 vs MCF-7)” value in the series with HT-1080 cells is given as over 13.

With `OCCOc1cc(Cl)cc(N2CCN(c3cnnc4c(Cl)cccc34)CC2)c1` [Compound 11d, 2-(3-chloro-5-(4-(8-chlorocinnolin-4-yl)piperazin-1-yl)phenoxy)ethan-1-ol], the “SI (HT-1080 vs MCF-7)” value with HT-1080 cells was over 40. The improvement in potency in [2] is given as over 3 fold. `CN(C)CCOc1cc(Cl)cc(N2CCN(c3cnnc4c(Cl)cccc34)CC2)c1` [Compound 11b, 2-(3-chloro-5-(4-(8-chlorocinnolin-4-yl)piperazin-1-yl)phenoxy)-N,N-dimethylethan-1-amine]: the improvement in solubility in series [1] was over 40 fold. `Clc1cc(Cl)cc(N2CCN(c3cnnc4c(Cl)cccc34)CC2)c1` [Compound 4a, 8-chloro-4-(4-(3,5-dichlorophenyl)piperazin-1-yl)cinnoline]: in series [2], the improvement in potency is ~ 4 fold. On to `COc1cc(Cl)cc(N2CCN(c3cnnc4c(Cl)cccc34)CC2)c1` [Compound 4e, 8-chloro-4-(4-(3-chloro-5-methoxyphenyl)piperazin-1-yl)cinnoline], for which the improvement in selectivity in the series on HT-1080 cells is > 10 fold and 19 fold and > 15 fold. This compound registered a Tlast in [4] (ip 1 mg/kg) of 4 h. Further, the improvement in bioavailability in series [4] (oral, compared to FiVe1, assuming dose proportional absorption) was ~ 4 fold. In series [3], the “VIM Ser56 phosphorylation” value is “induce VIM Ser56 phosphorylation at 10-fold lower concentration (100 nM)”. The same compound gave an improvement in potency in [2] of over 20 fold.
